One series in a line: in vitro. As to conditions: mouse.
The test system of series [1] is M. tb H37Rv-GFP. In words: microbe, parasite or virus in culture. Type of series: cell-based, Mycobacterium tuberculosis.
Series [2] concerns M. tb H37Rv-GFP replicating inside Raw264.7 macrophages. In words: microbe, parasite or virus in culture. The settings on record: for MIC50: read-out: Intracellular macrophage growth MIC50. Type of series: cell-based, Mycobacterium tuberculosis.
For series [3] the test system is unchanged. Also noted: method as in PMID 19876393. The settings on record: Raw264.7 macrophages infected with M. tb H37Rv-GFP; cited from earlier work.
Series [4] has as its system Raw264.7 murine macrophages. Also noted: method as in PMID 19876393. The settings on record: 50% host cell toxicity, Raw264.7 macrophages, read-out: Intracellular macrophage growth CC50, cited from earlier work.
In series [5] the test system is M. tb H37Rv-GFP. The arrangement: method as in PMID 19876393. The settings on record: M. tb H37Rv-GFP in broth medium; cited from earlier work.
In series [6] the test system is M. tb. The arrangement: method as in PMID 23029536, PMID 27503643, doi:10.1039/C6MD00231E. As to conditions: M. tb growth, inhibitor alone; cited from earlier work.
Series [7] relates to M. tb. The arrangement: method as in earlier work. The settings on record: combined application with vancomycin; ref 62 (Orlistat), 28 (Lalistat); cited from earlier work.
In series [8] the test system is M. tb mc^26230-empty vector. The series is described as follows: REMA, empty vector strain. Type of series: cell-based, Mycobacterium tuberculosis. The settings on record: Mycobacterium tuberculosis, REMA.
The next series has as its system M. tb mc^26230 WT. In words: microbe, parasite or virus in culture. Type of series: cell-based. As to conditions: REMA.
Series [9] has as its system serine/cysteine enzymes in M. tb mc^26230 lysate. The series is described as follows: Competitive ABPP labelling/enrichment with Desthiobiotin-FP (and TAMRA-FP), LC-MS/MS target identification. Type of series: binding, Mycobacterium tuberculosis. The settings on record: lysate pre-incubated with 580 µM inhibitor, 37 °C, 90 min.
Where [10] appears, read: Mycobacterium tuberculosis, H37RV, 120 h, read-out: Extracellular growth MIC50.
[11] abbreviates: Mycobacterium tuberculosis, H37RV, 120 h.
Setting [12] is: read-out: Extracellular growth MIC50.

As usually defined, the MIC is the lowest concentration that inhibits growth of the organism.

≈ marks a conversion by molar mass, not a printed value. Where two headings read alike, the source gives them in different places.

With `CCCCCCCCCCCCCCCCO[P@]1(=O)OC[C@@H]2COC(=O)C2=C(C)O1` [CyC 18(α)], the CC50 in the series “in vitro” was greater than 100 µM. For the same compound, in the series with M. tb H37Rv-GFP [1] (setting [10]), the MIC50 is 24.4 µM (≈ 10.8 µg/mL). For the same compound, the “Intracellular macrophage growth MIC50” value in [2] is recorded as “No effect”.

As to `CCCCCCCCCCCCCCCCOP1(=O)OC(C)=C(C(=O)OC)CCC1(F)F` (centres unmarked) [CyC 14], the “antibacterial activity against M. tb (in words)” value (“antibacterial activity” for short) in the series on M. tb H37Rv-GFP [1] is “non-active”.

In turn, `CCCCCCCCCCCCC1CCP(=O)(OC)OC(C)=C1C(=O)OC` (stereo not drawn) [CyC 8(β)] came in with a CC50 in “in vitro” greater than 20 µM. Also, the MIC50 was greater than 100 µM with M. tb H37Rv-GFP [1] (setting [10]) and 11.7 µM (≈ 4.71 µg/mL) in series [2] (setting [11]).

`CCCCCCCCCCCCCCCCOP1(=O)CCC(CCCCCCCCCC)C(C(=O)OC)=C(C)O1` (centres unmarked) [CyC 13]: the “antibacterial activity” value with M. tb H37Rv-GFP [1] is recorded as “did not yield any significant antibacterial activity”.

In the case of `CCc1cc(C(N)=S)ccn1` [Ethionamide (ETO), Ethionamide], the “Intracellular macrophage growth MIC50” value in [3] is 6.0 µM. For the same compound, the CC50 in series [4] (listed as ethionamide) was no less than 120 µM; in series [4], 120 µM. Besides, the “Extracellular growth MIC50” value with M. tb H37Rv-GFP [5] was 6.0 µM.

For the compound `CCCCCCCCCCC[C@@H](C[C@@H]1OC(=O)[C@H]1CCCCCC)OC(=O)[C@H](CC(C)C)NC=O` [Orlistat], in the series on M. tb [6], the MIC is 25 to 50 µM. In the series with M. tb [7], the MIC is ~ 6 µM and the MIC drop is reported as 16 fold.

In turn, `CCCCCCCCCCCCCCCCO[P@]1(=O)OC[C@H]2COC(=O)C2=C(C)O1` [CyC 18(β), Cyclipostins P] showed a CC50 in the series “in vitro” greater than 100 µM. In the series with M. tb H37Rv-GFP [1] (setting [10]), the MIC50 worked out at 1.7 µM (≈ 0.756 µg/mL). In addition, the “Intracellular macrophage growth MIC50” value in series [2] is “No effect”.

As to `CCCCCCCCCCCC[C@@H]1CC[P@](=O)(OC)OC(C)=C1C(=O)OC` (relative stereo) [CyC 8(α)], in the series “in vitro”, the CC50 was greater than 100 µM. Moreover, the MIC50 in series [2] (setting [11]) was 3 to 4 µM (≈ 1.21 to 1.61 µg/mL); in series [2], 4.0 µM (≈ 1.61 µg/mL).

Turning to `NNC(=O)c1ccncc1` [Isoniazid (INH), Isoniazid], the “Intracellular macrophage growth MIC50” value in series [3] is 1.2 µM. Further, in series [4], the CC50 was greater than 150 µM. In addition, in the series with M. tb H37Rv-GFP [5], the “Extracellular growth MIC50” value is listed as 1.2 µM.

In the case of `CCCCCCCCCCCCCCCCOP1(=O)CCCC(C(=O)OC)=C(C)O1` (centres unmarked) [CyC 11], the “antibacterial activity” value in the series with M. tb H37Rv-GFP [1] was “non-active”.

For `CCCCCCCCCCC1CCP(=O)(OC)OC(C)=C1C(=O)OC` (stereo not drawn) [CyC 7(β)], the CC50 in “in vitro” was greater than 100 µM. In addition, the MIC50 was 16 to 40 µM (≈ 5.99 to 15 µg/mL) with M. tb H37Rv-GFP [1] (setting [10]), 16.6 µM (≈ 6.22 µg/mL) in the series on M. tb H37Rv-GFP [1] (setting [12]), 3 to 4 µM (≈ 1.12 to 1.5 µg/mL) in [2] (setting [11]) and 3.1 µM (≈ 1.16 µg/mL) in series [2].

For `CCCCCCCCCCCCCCCCCCOP1(=O)CCCC(C(=O)OC)=C(C)O1` (centres unmarked) [CyC 12], in the series on M. tb H37Rv-GFP [1], the “antibacterial activity” value is “non-active”.

Consider MmPPOX, for which the MIC in the series with M. tb [6] was 25 to 50 µM.

Take Lalistat: the MIC in the series on M. tb [6] was 25 to 50 µM. Further, in the series on M. tb [7], the minimum inhibitory concentration (MIC) is 6 to 12 µM and the MIC drop is listed as 4 fold.

In “in vitro”, `CCCCCCCCCC[C@@H]1CC[P@](=O)(OC)OC(C)=C1C(=O)OC` (relative stereo) [CyC 7(α)] came in with a CC50 greater than 100 µM. Also, the MIC50 in the series on M. tb H37Rv-GFP [1] (setting [10]) is 92.6 µM (≈ 34.7 µg/mL); in series [2] (setting [11]), 4.5 µM (≈ 1.69 µg/mL).

In “in vitro”, `CCCCCCCCCCCCCCCCOP1(=O)OCCC(C(=O)OC)=C(C)O1` (centres unmarked) [CyC 17] yielded a CC50 greater than 100 µM. Also, the MIC50 in the series on M. tb H37Rv-GFP [1] (setting [10]) is 0.5 µM (≈ 0.223 µg/mL); in the series on M. tb H37Rv-GFP [1] (Mycobacterium tuberculosis, H37RV, read-out: Extracellular MIC50) it was roughly 0.5 µM (≈ 0.223 µg/mL); with M. tb H37Rv-GFP [1] (setting [12]), 0.50 µM (≈ 0.223 µg/mL); in [8], 0.52 ± 0.01 µM (≈ 0.232 µg/mL); in the series with M. tb mc^26230 WT (Mycobacterium tuberculosis, read-out: MIC50) it was 0.55 ± 0.023 µM (≈ 0.246 µg/mL); against M. tb mc^26230 WT, 0.55 ± 0.023 µM (≈ 0.246 µg/mL). The “Intracellular macrophage growth MIC50” value in series [2] is recorded as “No effect”. The “Effect of pre-treatment on Desthiobiotin-FP labelled bands (SDS-PAGE)” value in series [9] is “decrease in intensity of bands 1, 2 and 8; or disapearance of bands 3-7 and 9”.

Consider `CCCCCC1CCP(=O)(OC)OC(C)=C1C(=O)OC` (stereo not drawn) [CyC 6(β)], for which the CC50 in “in vitro” is greater than 100 µM. Besides, in the series with M. tb H37Rv-GFP [1], the “Extracellular growth MIC50” value was “No effect”. In addition, in [2] (setting [11]), the MIC50 worked out at 12.6 µM (≈ 3.83 µg/mL).

For the compound `CO[C@H]1/C=C/O[C@@]2(C)Oc3c(C)c(O)c4c(O)c(c(/C=N/N5CCN(C)CC5)c(O)c4c3C2=O)NC(=O)/C(C)=C\C=C\[C@H](C)[C@H](O)[C@@H](C)[C@@H](O)[C@@H](C)[C@H](OC(C)=O)[C@@H]1C` [Rifampicin (RIF), Rifampicin], the “Intracellular macrophage growth MIC50” value in [3] is given as 2.9 µM. Further, the CC50 in series [4] was 24 µM. In addition, the “Extracellular growth MIC50” value with M. tb H37Rv-GFP [5] is recorded as 0.01 µM.

These data come from article PMC5603573, “Cyclipostins and Cyclophostin analogs as promising compounds in the fight against tuberculosis” (Scientific Reports, 2017).
